For series [1], the system named is Plasmodium NMT. Conditions: background, cited from earlier work.
In series [2] the test system is P. falciparum. Particulars: background; read-out: EC50 in a P. falciparum growth assay; cited from earlier work.
Series [3] has as its system HepG2 cells. In words: HepG2 cytotoxicity assay (live/dead staining). In kind it is cell-based, human. Particulars: positive control, 10-20 μM. The method, then: (§1) Therefore, the cytotoxicity of the compounds was assessed in the human hepatoma HepG2 cell line. The compounds with PvNMT to HsNMT selectivity index above 20 were shortlisted for further screening.
Series [4] concerns the target T1, PvNMT (Plasmodium vivax, UniProt A5K1A2).
T1 construct: Gly-Pro stays on the protein after cleavage) (N, cleaved yes); host or cells: E. coli Rosetta 2 (DE3) pRARE
Briefly: biochemical. The series is classed as biochemical. The text has this:
NMT activity was indirectly measured through the detection of free CoA by the thiol-reactive probe 7-diethylamino-3-(4′-maleimidylphenyl)-4-methylcoumarin (CPM).
This study aimed to identify NMT is with high selectivity for the P. vivax enzyme compared with human NMTs and high potency against the different stages of the P. vivax parasite. For this purpose, a structure-guided approach was applied using previously reported NMT inhibitors as scaffolds to develop a new generation of PvNMT-targeting compounds. The NMT activity of these inhibitors was first measured using biochemical assays through the detection of free CoA by the thiol-reactive probe 7-diethylamino-3-(4′-maleimidylphenyl)-4-methylcoumarin (CPM). Their antiparasitic activity were further evaluated by measuring blood-stage parasite load and inhibition of P. vivax liver-stage schizont and hypnozoite infection. […] Cytotoxicity was assessed in the human hepatoma HepG2 cell line. Synchronized P. falciparum NF54 ring-stage parasites were used for measuring blood-stage parasite load. […] In vitro experiments were repeated at least twice. A single concentration of each inhibitor was initially used to evaluate the inhibition of P. vivax liver stage schizont and hypnozoite infection, followed by the determination of the dose-response relationship.
To measure the activity of the purified PvNMT an assay was adapted from the literature. […] Working stock solutions were made fresh adding DMSO for final concentrations of either 1% or 5% DMSO. […] The plate was incubated for 30 min at room temperature. The enzymatic reaction was initiated by adding 50 μL of reaction substrate containing 10 µM myrCoA and PfARF, as well as 8 μM CPM. Fluorescent readings were taken on a Spectra M2 plate reader (Molecular Devices) with excitation at 385 nm and emission at 485 nm. Fluorescent intensity was measured continuously in one-minute intervals for 45 minutes. Background fluorescence and noise were determined by replacing each constituent of the reaction individually with assay buffer containing 1% DMSO and values were deducted from experimental samples. The enzymatic reactions were set up with varying pHs (6.0-8.5) of the assay buffer to determine optimal reaction conditions with minimal background and off target reactions. In lieu of compound, 10 μL of 10% DMSO/H2O was added to each well. Fluorescence signal was obtained continuously for 45 min. […] IC50 calculations were calculated using Prism (GraphPad Software, Inc).

In series [5] the target is T2, HsNMT1 (Homo sapiens, UniProt P30419).
T2 construct: made in house
T2 sequence (P30419 1-496): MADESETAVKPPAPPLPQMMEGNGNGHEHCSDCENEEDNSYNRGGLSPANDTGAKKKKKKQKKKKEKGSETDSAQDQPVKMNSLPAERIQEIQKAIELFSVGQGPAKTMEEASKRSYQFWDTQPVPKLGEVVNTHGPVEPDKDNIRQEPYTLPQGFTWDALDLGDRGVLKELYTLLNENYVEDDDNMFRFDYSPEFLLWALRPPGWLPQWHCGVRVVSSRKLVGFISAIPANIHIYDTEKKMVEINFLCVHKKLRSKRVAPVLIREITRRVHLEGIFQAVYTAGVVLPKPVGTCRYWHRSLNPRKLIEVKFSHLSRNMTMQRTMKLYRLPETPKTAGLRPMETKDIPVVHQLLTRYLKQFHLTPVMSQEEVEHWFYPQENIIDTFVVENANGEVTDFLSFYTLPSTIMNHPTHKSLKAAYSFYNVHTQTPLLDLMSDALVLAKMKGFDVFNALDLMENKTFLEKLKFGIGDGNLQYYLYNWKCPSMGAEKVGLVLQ
In words: NMT activity assay (CPM detection of free CoA), human NMT. Particulars: read-out: HsNMT IC50 (nM)*. The series is classed as biochemical.

Series [6] relates to P. vivax hypnozoites. In words: P. vivax liver stage assay in primary human hepatocytes, hypnozoites. The series is classed as cell-based. Conditions: Plasmodium vivax, Hepatocyte; for pIC50: 8 dpi, primary human hepatocytes, read-out: liver stage Pv hypnozoites IC50. The method, then: Finally, the NMT-binding compounds were evaluated against non-developing P. vivax hypnozoites. […] .

Series [7] is described as follows: HepG2 cytotoxicity assay (live/dead staining). In kind it is cell-based, human. Particulars: human. As for the experimental part: as §1
Series [8] relates to P. falciparum NF54 ring-stage parasites. In words: P. falciparum blood stage assay (SYBR Green parasite DNA). The series is classed as cell-based. Particulars: Plasmodium falciparum, NF54, 72 h; read-out: blood stage Pf NF54 IC50. As for the experimental part: To assess whether any of the NMTis developed here could qualify as TCP-1 candidates, the effect of each compound on blood-stage P. falciparum parasites was assessed, as there is currently no well-established in vitro platform for screening P. vivax blood-stage parasites. Synchronized P. falciparum NF54 ring stage parasites were treated for 72 h with each compound at various concentrations, ranging from 0.625 μM to 10 μM, and parasite DNA replication was measured using a fluorescent DNA binding dye (SYBR Green).
Sorbitol-synchronized P. falciparum NF54 ring-stage parasites were cultured at a parasitemia of 0.5% and hematocrit of 1.5% in a 96-well microtiter plate. […] Direct lysis of the blood cells to release the parasite DNA was performed by adding 100 μL of LBS buffer containing SYBR green I DNA binding dye to each well. Plates were incubated at-20° C. overnight for complete lysis and fluorescence was measured at 485 nm (excitation) and 528 nm (emission). ICEstimator regression analysis (antimalarial-icestimator dot net) was used to obtain relative IC50 values for each compound.

For series [9], the system named is P. vivax liver stage schizonts. Briefly: P. vivax liver stage assay in primary human hepatocytes, schizonts. Particulars: Plasmodium vivax, Hepatocyte, read-out: liver stage Pv schizonts IC50 (μM).
Protocol: P. vivax sporozoites were obtained from three independent patient isolates. Liver stage infections were cultured in primary human hepatocytes from a single donor lot using a 384-well microculture system as described previously. Cells were infected and treated with NMTis at 20 μM beginning day 5 post-infection until day 8 when the infection rates were quantified via fluorescent microscopy. […] Accordingly, dose-response curves of all the shortlisted NMTis on parasite isolates 3 and 4 were applied over concentrations up to 20 μM (FIGS. 4C and D).
Plasmodium vivax liver stage assays were performed as described previously. Briefly, 384-well plates were seeded with primary hepatocytes from a single donor lot at a density of 25,000 cells per well. The hepatocytes were then infected with 14,000 freshly hand-dissected sporozoites per well. Cells were exposed to the compounds at indicated concentrations from day 3 post-infection, then proceeded to feed cultures every day, replacing the compounds until day 8 post-infection. Cells were fixed with 4% PFA and stained with PvUIS4 antibodies to detect schizonts and hypnozoites forms by confocal microscopy. The images were processed and analyzed using IMARIS (Bitplane Inc.) image analysis software.
The mark [10] stands for this setting: Table 1, enzyme selectivity calculated as HsNMT IC50/PvNMT IC50.
The mark [11] stands for this setting: Table 1, mean values of two or more determinations.

pEC50, pIC50: −log10 of the molar value. Like-named read-outs stand apart in the source and are kept apart here. Some results are limits rather than exact numbers.

T1 sequence (A5K1A2 entry or part of it): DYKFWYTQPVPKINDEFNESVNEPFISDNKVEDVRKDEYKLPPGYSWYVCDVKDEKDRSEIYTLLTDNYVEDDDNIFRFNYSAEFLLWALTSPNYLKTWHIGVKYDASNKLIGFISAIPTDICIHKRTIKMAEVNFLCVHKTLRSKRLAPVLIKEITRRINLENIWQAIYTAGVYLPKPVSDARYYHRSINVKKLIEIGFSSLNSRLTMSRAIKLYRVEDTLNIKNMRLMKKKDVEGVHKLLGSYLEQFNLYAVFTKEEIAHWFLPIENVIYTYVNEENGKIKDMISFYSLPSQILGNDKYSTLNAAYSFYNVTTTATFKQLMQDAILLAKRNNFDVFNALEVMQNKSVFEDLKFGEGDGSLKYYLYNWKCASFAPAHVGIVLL

Take `Cc1nn(C)c(C)c1CCOc1cc(F)ccc1-c1ccc2c(c1)c(CN(C)C)nn2C` [IMP-1002]: the pIC50 in series [1] (previously developed NMT inhibitors) is 8.52. The “selectivity over HsNMT1/2” value in [1] is reported as “up to fourfold”. Moreover, in [2], the pEC50 was 8.00.

For the compound `CN[C@@H]1C[C@H]2O[C@@](C)([C@@H]1OC)n1c3ccccc3c3c4c(c5c6ccccc6n2c5c31)C(=O)NC4` [Staurosporine, reference compound], the “effect on HepG2 cell viability” value in series [3] is “reduced the cell viability”.

On to `c1cncc(CCOc2ccc3ccccc3c2-c2ccnc(N3CCNCC3)c2)c1` [Compound 30c, 1-(4-(2-(2-(pyridin-3-yl)ethoxy)naphthalen-1-yl)pyridin-2-yl)piperazine], for which the 50% inhibitory concentration (IC50) in series [4] (Table 2) is 248 nM; in [5] (Table 2), more than 40000 nM. Further, the “SI**” value in [4] (Table 2, HsNMT IC50/PvNMT IC50) is 161. In series [6] (20 μM), this compound showed an inhibition at 20 µM of more than 75%.

With `Cc1nn(C)c(C)c1CCOc1ccccc1-c1cccc(N2CCNCC2)c1` [Compound 12d, 1-(2′-(2-(1,3,5-trimethyl-1H-pyrazol-4-yl)ethoxy)-[1,1′-biphenyl]-3-yl)piperazine], the “SI**” value in [4] (setting [10]) is 153.4. For the same compound, the figures for the IC50 in series [4] (setting [11]) and in series [5] (setting [11]) were 48.5 nM and 7440 nM, respectively.

With `Cc1n[nH]c(C)c1CCOc1cc(F)ccc1-c1ccnc(N2CCNCC2)c1` [Compound 12q, 1-(4-(2-(2-(3,5-dimetyl-1H-pyrazol-4-yl)ethoxy)-4-fluorophenyl)piridin-2-yl)piperazine], the “SI**” value in series [4] (setting [10]) was 22. For the same compound, the IC50 is 73 nM in series [4] (setting [11]), 1630 nM in series [5] (setting [11]) and 2.2 to 3.5 µM in series [9]. In series [7], this compound came in with an IC50 at 48 h of more than 20000 nM. The pIC50 is 6.42 in series [8] and 5.36 in [6].

For `Cc1n[nH]c(C)c1CCOc1ccccc1-c1ccnc(N2CCNCC2)c1` [Compound 12n, 1-(4-(2-(2-(3,5-dimethyl-1H-pyrazol-4-yl)ethoxy)phenyl)pyridin-2-yl)piperazine], the “SI**” value in series [4] (setting [10]) is recorded as 65.7. The half-maximal inhibitory concentration (IC50) stood at 604 nM in [4] (setting [11]) and 39700 nM in series [5] (setting [11]).

In the case of “3-(2′-(3,5-dimethyl-1H-pyrazol-4-yl)ethoxy-4′-fluoro-[1,1′-biphenyl]-3-yl)piperazine [Compound 12p]”, the “SI**” value in series [4] (setting [10]) was 62.7. The IC50 was found to be 368 nM in [4] (setting [11]) and 23100 nM in [5] (setting [11]).

In the case of `Cc1nn(C)c(C)c1NS(=O)(=O)c1c(Cl)cc(-c2ccnc(N3CCNCC3)c2)cc1Cl` [DDD85646], the pEC50 in series [2] was 7.16.

On to `Fc1ccc(-c2ccnc(N3CCNCC3)c2)c(OCCc2cccnc2)c1` [Compound 12l, 1-(4-(4-fluoro-2-(2-(pyridin-3-yl)ethoxy)phenyl)pyridin-2-yl)piperazine], for which the “SI**” value in [4] (setting [10]) is 73. For the same compound, the figures for the IC50 in series [4] (setting [11]) and in [5] (setting [11]) were 23.4 nM and 1710 nM, respectively.

With `c1cncc(CCOc2cccnc2-c2ccnc(N3CCNCC3)c2)c1` [Compound 12h, 2′-(piperazin-1-yl)-3-(2-(pyridin-3-yl)ethoxy)-2,4′-bipyridine], the “SI**” value in series [4] (setting [10]) is 90.9. Moreover, the values for the IC50 in series [4] (setting [11]) and in [5] (setting [11]) were 441 nM and more than 40000 nM, respectively.

Turning to `Cc1nn(C)c(C)c1CCOc1ccc2ccccc2c1-c1ccnc(N2CCNCC2)c1` [Compound 30a, 1-(4-(2-(2-(1,3,5-trimethyl-1H-pyrazol-4-yl)ethoxy)naphthalen-1-yl)pyridin-2-yl)piperazine], the IC50 in series [4] (Table 2) is 89 nM; in series [5] (Table 2), 24000 nM; in series [9] it was 2.9 to 4.3 µM. The “SI**” value in series [4] (Table 2, HsNMT IC50/PvNMT IC50) was found to be 269.8. For the same compound, the “selectivity index (SI)” value in series [4] (ratio of IC50 values for HsNMT1 and PvNMT) is reported as 269. This compound also gave an IC50 at 48 h in series [7] of more than 20000 nM. Also, the figures for the pIC50 in series [8] and in [6] were 6.36 and 5.68, respectively.

Consider `Cc1nn(C)c(C)c1CCOc1ccccc1-c1ccnc(N2CCNCC2)c1` [Compound 12c, 1-(4-(2-(2-(1,3,5-trimethyl-1H-pyrazol-4-yl)ethoxy)phenyl)pyridin-2-yl)piperazine], for which the “SI**” value in series [4] (setting [10]) is 63.1. Also, the half-inhibitory concentration (IC50) stood at 9.48 nM in series [4] (setting [11]) and 599 nM in [5] (setting [11]).

On to `Cc1nn(C)c(C)c1CCOc1cccnc1-c1cccc(OCCN(C)C)c1` [Compound 26a, N,N-dimethyl-2-(3-(3-(2-(1,3,5-trimethyl-1H-pyrazol-4-yl)ethoxy)pyridin-2-yl)phenoxy)-ethan-1-amine], for which the IC50 in series [4] (Table 2) is 266 nM; in series [5] (Table 2) it was more than 40000 nM. The “SI**” value in series [4] (Table 2, HsNMT IC50/PvNMT IC50) is reported as 153.8.

`Cc1nn(C)c(C)c1CCOc1cccnc1-c1ccnc(N2CCNCC2)c1` [Compound 12a, 2′-(piperazin-1-yl)-3-(2-(1,3,5-trimethyl-1H-pyrazol-4-yl)ethoxy)-2,4′-bipyridine]: the “SI**” value in series [4] (setting [10]) was 146.7. Further, the values for the IC50 in [4] (setting [11]) and in [5] (setting [11]) were 36.8 nM and 5400 nM, respectively.

The term pIC50 denotes −log10 of the IC50, conventionally taken in molar units. For orientation: pEC50 means the EC50 on a negative log10 scale, so that one unit is a factor of ten. What is called IC50 is the concentration that gives 50% inhibition. The term inhibition denotes how much of the control response was suppressed. Read a high inhibition as a response far below the control.

The record behind these values is patent US20260217686A1, “N-Myristoyltransferase Inhibitors And Methods Of Use” (Seattle Children's Hospital (d/b/a Seattle Children's …, priority 2022, published 2026).
